Target: MetAP-2 (Homo sapiens, UniProt P50579)
Test: MetAP-2 activity measurement (coupled enzymatic reactions, Met-Arg-Ser substrate, dianisidine detection at 450 nm)
Type: biochemical
Conditions: Inhibition of MetAP-2; read-out: IC50 enzyme
Outline: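 Coupled continuous assay with Met-Arg-Ser tripeptide substrate: released methionine oxidised by L-amino acid oxidase to give H2O2, which peroxidase uses to oxidise dianisidine, followed at 450 nm. Activity taken as slope of absorbance versus time over the visually linear region; dianisidine extinction coefficient converts to mol Met per time.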

MetAP-2, sequence (P50579 whole entry, species assumed): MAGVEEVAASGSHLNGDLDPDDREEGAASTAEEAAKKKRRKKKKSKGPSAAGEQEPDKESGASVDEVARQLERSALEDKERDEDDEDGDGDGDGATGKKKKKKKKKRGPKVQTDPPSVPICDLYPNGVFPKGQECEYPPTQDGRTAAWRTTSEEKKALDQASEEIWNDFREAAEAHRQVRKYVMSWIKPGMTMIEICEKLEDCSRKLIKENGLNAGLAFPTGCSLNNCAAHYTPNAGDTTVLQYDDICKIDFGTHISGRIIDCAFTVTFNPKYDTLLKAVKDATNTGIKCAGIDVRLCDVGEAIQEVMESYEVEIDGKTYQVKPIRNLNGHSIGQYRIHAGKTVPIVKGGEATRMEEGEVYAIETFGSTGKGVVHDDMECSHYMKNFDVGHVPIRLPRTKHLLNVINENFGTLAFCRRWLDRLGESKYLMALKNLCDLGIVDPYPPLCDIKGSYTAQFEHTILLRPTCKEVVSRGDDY

SMILES | IC50
O=C(NCc1cc(F)cc(Cl)c1)[C@@]1(O)CCN(c2ccc3[nH]c(=O)ccc3c2)C1=O [B40, N-(3-Chloro-5-fluorobenzyl)-(S)-3-hydroxy-2-oxo-1-(2-oxo-1,2-dihydroquinolin-6-yl)pyrrolidine-3-carboxamide] | 0.01 to 1 µM
O=C(NCc1cc(F)cc(Cl)c1)[C@]1(O)CCN(c2ccc3[nH]c(=O)ccc3c2)C1=O [B41, N-(3-Chloro-5-fluorobenzyl)-(R)-3-hydroxy-2-oxo-1-(2-oxo-1,2-dihydroquinolin-6-yl)pyrrolidine-3-carboxamide] | 1 to 10 µM
O=C(NCc1cc(F)cc(Cl)c1)[C@]1(O)CCN(c2cc(C(F)(F)F)ccc2F)C1=O [B42, N-(3-Chloro-5-fluorobenzyl)-(R)-1-(2-Fluoro-5-trifluoromethyl-phenyl)-3-hydroxy-2-oxo-pyrrolidine-3-carboxamide] | 1 to 10 µM
O=C(NCc1cc(F)cc(Cl)c1)C1(O)CCN(c2ccc3[nH]cc(C(F)(F)F)c3c2)C1=O (centres unmarked) [B43, N-(3-Chloro-5-fluorobenzyl)-3-hydroxy-2-oxo-1-(3-trifluoromethyl-1H-indol-5-yl)-pyrrolidine-3-carboxamide] | 0.01 to 1 µM
OC1(CNCc2cc(F)cc(F)c2)CCCN(Cc2ccccc2)C1 (centres unmarked) [B44, 1-Benzyl-3-[(3,5-difluorobenzylamino)methyl]-piperidin-3-ol] | > 10 µM
O=C1N(c2ccccc2)CCC1(O)CNCc1ccc(F)cc1 (centres unmarked) [B45, 3-[(4-Fluorobenzylamino)-methyl]-3-hydroxy-1-phenyl-pyrrolidin-2-one] | 1 to 10 µM
O=C1N(c2ccccc2)CCC1(O)CNCc1cc(F)cc(F)c1 (centres unmarked) [B46, 3-[(3,5-Difluorobenzylamino)-methyl]-3-hydroxy-1-phenyl-pyrrolidin-2-one] | 0.01 to 1 µM
O=C1N(c2ccccc2)CCC1(O)CNCCc1ccc(F)cc1 (centres unmarked) [B47, 3-{[2-(4-Fluorophenyl)-ethylamino]methyl}-3-hydroxy-1-phenylpyrrolidin-2-one] | 1 to 10 µM
O=C1N(c2ccccc2)CCC1(O)CNCc1cccc(F)c1 (centres unmarked) [B48, 3-[(3-Fluorobenzylamino)-methyl]-3-hydroxy-1-phenyl-pyrrolidin-2-one] | 1 to 10 µM
Cc1ccc(CNCC2(O)CCN(c3ccccc3)C2=O)cc1 (centres unmarked) [B49, 3-Hydroxy-3-[(4-methyl-benzylamino)methyl]-1-phenyl-pyrrolidin-2-one] | 0.01 to 1 µM
O=C1CCc2cc(NC(=O)C3(O)CCN(c4ccc5c(c4)CCC(=O)N5)C3=O)ccc2N1 (centres unmarked) [B50, N-(2-Oxo-1,2,3,4-tetrahydro-quinolin-6-yl)-3-hydroxy-2-oxo-1-(2-oxo-1,2,3,4-tetrahydro-quinolin-6-yl)pyrrolidine-3-carboxamide] | > 10 µM
CC(C)(C)OC(=O)N1CCC(O)(C(=O)OCc2ccccc2)C1=O (centres unmarked) [B51, 3-Benzyl 1-tert-butyl 3-hydroxy-2-oxopyrrolidine-1,3-dicarboxylate] | > 10 µM
O=C(NCc1cc(F)cc(Cl)c1)[C@@]1(O)CCN(c2cc(C(F)(F)F)ccn2)C1=O [B52, N-(3-Chloro-5-fluorobenzyl)-(S)-3-hydroxy-2-oxo-1-(4-trifluoromethylpyridin-2-yl)-pyrrolidine-3-carboxamide] | 0.01 to 1 µM
CC(C)OC(=O)C1(O)CCN(C(=O)OCc2ccccc2)C1=O (centres unmarked) [B53, 1-Benzyl 3-isopropyl 3-hydroxy-2-oxopyrrolidine-1,3-dicarboxylate] | > 10 µM
O=C1N(Cc2ccccc2)CCC[C@]1(O)CNCc1cc(F)cc(Cl)c1 [B54, (S)-1-Benzyl-3-[(3-chloro-5-fluorobenzylamino)methyl]-3-hydroxypiperidin-2-one] | 0.01 to 1 µM
O=C1N(Cc2ccccc2)CCC[C@@]1(O)CNCc1cc(F)cc(Cl)c1 [B55, (R)-1-Benzyl-3-[(3-chloro-5-fluorobenzylamino)methyl]-3-hydroxypiperidin-2-one] | 1 to 10 µM
O=C1CCc2cc(N3CC[C@](O)(C(=O)NCc4cccc(F)c4)C3=O)ccc2N1 [B56, N-(3-Fluorobenzyl)-(S)-3-hydroxy-2-oxo-1-(2-oxo-1,2,3,4-tetrahydroquinolin-6-yl)-pyrrolidine-3-carboxamide] | 0.01 to 1 µM
O=C1CCc2cc(N3CC[C@@](O)(C(=O)NCc4cccc(F)c4)C3=O)ccc2N1 [B57, N-(3-Fluorobenzyl)-(R)-3-hydroxy-2-oxo-1-(2-oxo-1,2,3,4-tetrahydroquinolin-6-yl)-pyrrolidine-3-carboxamide] | > 10 µM
O=C1N(c2ccccc2)CC[C@@]1(O)CNCc1cc(F)cc(Cl)c1 [B58, (R)-3-[(3-Chloro-5-fluorobenzylamino)methyl]-3-hydroxy-1-phenylpyrrolidin-2-one] | 1 to 10 µM

SMILES | IC50
O=C1N(c2ccccc2)CC[C@]1(O)CNCc1cc(F)cc(Cl)c1 [B59, (S)-3-[(3-Chloro-5-fluorobenzylamino)methyl]-3-hydroxy-1-phenylpyrrolidin-2-one] | 0.01 to 1 µM
O=C(NCc1cc(F)cc(Cl)c1)[C@@]1(O)CCN(Cc2n[nH]c3ccccc23)C1=O [B60, N-(3-Chloro-5-fluorobenzyl)-(S)-3-hydroxy-1-(1H-indazol-3-ylmethyl)-2-oxopyrrolidine-3-carboxamide] | 0.01 to 1 µM
Cc1cc2cc(N3CC[C@@](O)(C(=O)NCc4cc(F)cc(Cl)c4)C3=O)cnc2[nH]1 [B61, N-(3-Chloro-5-fluorobenzyl)-(R)-3-hydroxy-1-(2-methyl-1H-pyrrolo[2,3-b]pyridin-5-yl)-2-oxo-pyrrolidine-3-carboxamide] | 1 to 10 µM
Cc1cc2cc(N3CC[C@](O)(C(=O)NCc4cc(F)cc(Cl)c4)C3=O)cnc2[nH]1 [B62, N-(3-Chloro-5-fluorobenzyl)-(S)-3-hydroxy-1-(2-methyl-1H-pyrrolo[2,3-b]pyridin-5-yl)-2-oxo-pyrrolidine-3-carboxamide] | 0.01 to 1 µM
O=C1N(CC2CCCCC2)CCC[C@]1(O)CNCc1cc(F)cc(Cl)c1 [B63, (S)-3-[(3-Chloro-5-fluorobenzylamino)methyl]-1-cyclohexylmethyl-3-hydroxy-piperidin-2-one] | 0.01 to 1 µM
O=C1N(CC2CCCCC2)CCC[C@@]1(O)CNCc1cc(F)cc(Cl)c1 [B64, (R)-3-[(3-Chloro-5-fluorobenzylamino)methyl]-1-cyclohexylmethyl-3-hydroxy-piperidin-2-one] | > 10 µM
O=C(NCc1cc(F)cc(Cl)c1)[C@@]1(O)CCN(c2ccc(C(F)(F)F)cc2F)C1=O [B65, N-(3-Chloro-5-fluorobenzyl)-(S)-1-(2-fluoro-4-trifluoromethyl-phenyl)-3-hydroxy-2-oxo-pyrrolidine-3-carboxamide] | 0.01 to 1 µM
Cc1ccc(N2CC[C@](O)(C(=O)NCc3cc(F)cc(Cl)c3)C2=O)c(F)c1 [B66, N-(3-Chloro-5-fluorobenzyl)-(S)-1-(2-fluoro-4-methylphenyl)-3-hydroxy-2-oxopyrrolidine-3-carboxamide] | 0.01 to 1 µM
O=C(NCc1cc(F)cc(Cl)c1)C1(O)CCCN(c2cc(C(F)(F)F)ccc2F)C1=O (centres unmarked) [B67, N-(3-Chloro-5-fluorobenzyl)-1-(2-fluoro-5-trifluoromethyl-phenyl)-3-hydroxy-2-oxo-piperidine-3-carboxamide] | 1 to 10 µM
O=C1CCc2cc(N3CCCC(O)(CNCc4cc(F)cc(Cl)c4)C3=O)ccc2N1 (centres unmarked) [B68, 6-{3-[(3-Chloro-5-fluorobenzylamino)methyl]-3-hydroxy-2-oxopiperidin-1-yl}-3,4-dihydro-1H-quinolin-2-one] | 1 to 10 µM
O=C1CCc2cc(CN3CCC(O)(C(=O)NCc4cc(F)cc(Cl)c4)C3=O)ccc2N1 (centres unmarked) [B69, N-(3-Chloro-5-fluorobenzyl)-3-hydroxy-2-oxo-1-(2-oxo-1,2,3,4-tetrahydroquinolin-6-ylmethyl)-pyrrolidine-3-carboxamide] | 0.01 to 1 µM
NC(=O)c1ccc(F)c(N2CC[C@](O)(C(=O)NCc3cc(F)cc(Cl)c3)C2=O)c1 [B70, N-(3-Chloro-5-fluorobenzyl)-(S)-1-(5-carbamoyl-2-fluorophenyl)-3-hydroxy-2-oxopyrrolidine-3-carboxamide] | 0.01 to 1 µM
O=C(NCc1cc(F)cc(Cl)c1)[C@@]1(O)CCN(c2ccc3[nH]c(=O)[nH]c3c2)C1=O [B71, N-(3-Chloro-5-fluorobenzyl)-(S)-3-hydroxy-2-oxo-1-(2-oxo-2,3-dihydro-1H-benzimidazol-5-yl)-pyrrolidine-3-carboxamide] | 0.01 to 1 µM
O=C(NCc1cc(F)cc(Cl)c1)[C@]1(O)CCN(c2ccc3[nH]cc(C(F)(F)F)c3c2)C1=O [B73, N-(3-Chloro-5-fluorobenzyl)-(R)-3-hydroxy-2-oxo-1-(3-trifluoro-methyl-1H-indol-5-yl)pyrrolidine-3-carboxamide] | > 10 µM
O=C(NCc1cc(F)cc(Cl)c1)[C@@]1(O)CCN(c2ccc3[nH]cc(C(F)(F)F)c3c2)C1=O [B74, N-(3-Chloro-5-fluorobenzyl)-(S)-3-hydroxy-2-oxo-1-(3-trifluoro-methyl-1H-indol-5-yl)pyrrolidine-3-carboxamide] | 0.01 to 1 µM
O=C(NCc1cc(F)cc(Cl)c1)[C@@]1(O)CCN(c2cnc3[nH]ncc3c2)C1=O [B75, N-(3-Chloro-5-fluorobenzyl)-(S)-3-hydroxy-2-oxo-1-(1H-pyrazolo[3,4-b]pyridin-5-yl)-pyrrolidine-3-carboxamide] | 0.01 to 1 µM
O=C(NCc1cc(F)cc(Cl)c1)C1(O)CCN(c2cnc3[nH]c(C(F)(F)F)cc3c2)C1=O (centres unmarked) [B76, N-(3-Chloro-5-fluorobenzyl)-3-hydroxy-2-oxo-1-(2-trifluoro-methyl-1H-pyrrolo[2,3-b]pyridin-5-yl)pyrrolidine-3-carboxamide] | 0.01 to 1 µM
O=C(NCc1cc(F)cc(Cl)c1)[C@@]1(O)CCN(c2ccc3[nH]c(=O)sc3c2)C1=O [B77, N-(3-Chloro-5-fluorobenzyl)-(S)-3-hydroxy-2-oxo-1-(2-oxo-2,3-dihydrobenzothiazol-6-yl)-pyrrolidine-3-carboxamide] | 0.01 to 1 µM
NC(=O)c1cc2cc(N3CC[C@](O)(C(=O)NCc4cc(F)cc(Cl)c4)C3=O)ccc2[nH]1 [B78, 5-[(S)-3-(3-Chloro-5-fluorobenzylcarbamoyl)-3-hydroxy-2-oxopyrrolidin-1-yl]-1H-indole-2-carboxamide] | 0.01 to 1 µM

From US10093623B2, “Cyclic amides as MetAP-2 inhibitors” (MERCK PATENT GmbH, priority 2012, dated 2018)
